Reference: US6350609B1, “Electrospraying for mass fabrication of chips and libraries” (New York University, priority 1997, dated 2002)
“And” between values parts separate entries of the source, which are not always exact repeats. Equal values may be shown once. Values belong to the molecule of their own block, whether it stands above or below them.

Tests used:
[1] = target: T1, Pancreatic RNAse (Bos taurus, UniProt P61823); assay: Mechano-chemical effect of a specific ligand on cross-linked protein film (isometric tension); assay type: biochemical; conditions: ligand 5-10 times binding constant
T1 construct: purchased Sigma, St. Louis
T1 sequence (P61823 27-150): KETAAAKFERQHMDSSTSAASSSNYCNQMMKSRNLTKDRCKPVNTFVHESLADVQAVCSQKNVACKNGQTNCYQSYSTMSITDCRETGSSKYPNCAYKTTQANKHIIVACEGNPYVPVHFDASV

[2] = target: T2, Alkaline phosphatase (AP) from bovine intestinal mucosa (Bos taurus, UniProt P19111); assay: Effect of AgNO3 added to AP solution on AP activity; assay type: biochemical; conditions: 10^−4 M AgNO3 added to the AP solution
T2 construct: purchased Sigma Chemical Co., St. Louis, Mo; host or cells: bovine intestinal mucosa
T2 sequence (P19111 20-506): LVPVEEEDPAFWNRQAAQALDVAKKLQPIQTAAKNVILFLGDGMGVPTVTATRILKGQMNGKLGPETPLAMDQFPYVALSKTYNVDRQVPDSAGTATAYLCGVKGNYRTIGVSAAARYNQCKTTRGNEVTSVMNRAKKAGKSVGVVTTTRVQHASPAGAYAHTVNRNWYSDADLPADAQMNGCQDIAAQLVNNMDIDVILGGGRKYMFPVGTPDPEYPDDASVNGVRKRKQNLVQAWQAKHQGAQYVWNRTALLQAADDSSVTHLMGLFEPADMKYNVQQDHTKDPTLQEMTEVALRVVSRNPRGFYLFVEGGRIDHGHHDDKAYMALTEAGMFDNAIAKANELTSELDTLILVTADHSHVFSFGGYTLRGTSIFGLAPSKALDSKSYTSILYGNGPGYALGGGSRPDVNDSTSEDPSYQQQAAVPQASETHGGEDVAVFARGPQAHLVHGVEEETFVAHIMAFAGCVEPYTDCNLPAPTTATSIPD
Protocol: AP activity was measured immediately after spot extraction by adding 5-20 μL of the extract solution to 1.0 mL of the p-NPP solution in the TRIS/HCl buffer prepared from Sigma Fast tablets. Activity was measured in a room with a thermostat, with a temperature of 25±1° C. […] The specific activity was calculated using protein concentration measured gravimetrically, as described above in the mass measurement section.
It is believed, therefore, that the inactivation of AP at high voltages and currents occur outside the capillary as a result of reaction with the products of corona discharge or as the result of impact with the target electrode. Impact energy should grow with an increase of the potential, causing protein distraction on impact. This can explain the increase in AP inactivation with increasing voltage and current. The generation of corona products in electrospray deposition at I>200-300 nA was noticeable from a characteristic smell of ozone in the electrospray chamber. […] The capillary with the external electrode supports corona discharge more readily than the capillary with the internal electrode, which explains why AP is inactivated at lower currents and to a higher extent when electrospray deposited from the capillary with the external electrode.

[3] = tested on: Pancreatic Trypsin; assay: Mechano-chemical effect of a specific ligand on cross-linked protein film (isometric tension); assay type: biochemical; conditions: ligand concentration 5-10 times binding constant; for Effect in Dried Sample % (relative change in isometric tension in protein film induced by binding of specific ligand): conventional drying on glass
[4] = target: Avidin (Gallus gallus, UniProt P02701); assay: as above; assay type: biochemical; conditions: ligand 5-10 times binding constant
Avidin, sequence (P02701 25-152, species assumed): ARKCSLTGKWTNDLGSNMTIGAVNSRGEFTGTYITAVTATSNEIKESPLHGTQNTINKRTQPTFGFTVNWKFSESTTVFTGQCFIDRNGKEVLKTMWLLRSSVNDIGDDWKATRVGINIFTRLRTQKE

[5] = tested on: α-Lactalburnin; assay: as above; assay type: biochemical
Description: Using protein as an example of a biomolecule for electrospray deposition, the structure of the protein film and the functional properties of the protein molecules in the film is dependent on the path of flight of the electrospray, speed of the charged particles controlled by voltage, sign of the charges, humidity and temperature under which the protein molecules are electrosprayed, protein concentration in solution, and presence of stabilizers. At short distances, e.g., about 15 mm between capillary and substrate, or when the electrospray takes place in a humid atmosphere (relative humidity of more than 70-80%), charged microdroplets from the electrospray can reach the surface without decay or the production of dry ions, i.e., in the wet electrospray regime. The sample films obtained after evaporation of the deposited microdroplets on the substrate have much in common with the sample protein films obtained conventionally by applying a protein solution directly to the substrate and allowing the proteins to dry.

[6] = target: T3, 3-phosphoglycerate kinase (yeast) (Saccharomyces cerevisiae, UniProt P00560); assay: as above; assay type: biochemical; conditions: cross-linked 3-phosphoglycerate kinase (yeast) film, ligand 5-10 times binding constant
T3 sequence (P00560 1-416): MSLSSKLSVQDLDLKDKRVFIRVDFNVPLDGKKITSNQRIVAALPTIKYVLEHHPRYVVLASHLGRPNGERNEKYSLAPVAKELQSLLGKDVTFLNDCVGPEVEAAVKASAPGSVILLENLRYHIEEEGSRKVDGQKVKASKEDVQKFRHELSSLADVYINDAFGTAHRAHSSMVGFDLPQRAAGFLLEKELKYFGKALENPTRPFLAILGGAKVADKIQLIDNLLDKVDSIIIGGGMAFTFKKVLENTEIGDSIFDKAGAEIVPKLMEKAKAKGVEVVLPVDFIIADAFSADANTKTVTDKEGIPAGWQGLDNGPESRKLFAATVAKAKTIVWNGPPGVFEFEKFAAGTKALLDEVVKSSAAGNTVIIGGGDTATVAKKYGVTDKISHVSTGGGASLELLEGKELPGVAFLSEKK

[7] = target: Lysozyme (egg) (Gallus gallus, UniProt P00698); assay: as above; assay type: biochemical; conditions: ligand 5-10 times binding constant
Lysozyme (egg), sequence (P00698 19-147): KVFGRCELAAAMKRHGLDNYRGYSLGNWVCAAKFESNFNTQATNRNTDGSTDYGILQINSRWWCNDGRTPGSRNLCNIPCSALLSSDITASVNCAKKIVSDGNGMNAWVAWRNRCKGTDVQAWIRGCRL

[8] = target: T4, Alcohol dehydrogenase (horse liver) (Equus caballus, UniProt P00327); assay: as above; assay type: biochemical; conditions: 0.4 mM NADH solution
T4 construct: purchased Sigma, St. Louis, Mo; host or cells: horse liver
T4 sequence (P00327 whole entry): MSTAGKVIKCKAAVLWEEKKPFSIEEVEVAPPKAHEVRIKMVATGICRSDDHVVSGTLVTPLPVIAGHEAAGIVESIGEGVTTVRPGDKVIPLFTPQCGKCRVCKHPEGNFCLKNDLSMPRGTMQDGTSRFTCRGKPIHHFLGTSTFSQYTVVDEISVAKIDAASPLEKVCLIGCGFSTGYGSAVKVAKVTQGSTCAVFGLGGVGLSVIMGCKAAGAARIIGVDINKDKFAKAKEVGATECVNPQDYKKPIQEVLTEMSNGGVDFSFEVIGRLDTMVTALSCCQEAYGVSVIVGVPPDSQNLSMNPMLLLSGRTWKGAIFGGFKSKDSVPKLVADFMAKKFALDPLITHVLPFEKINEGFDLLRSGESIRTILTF
Protocol: A film of horse liver alcohol dehydrogenase (LADH, Sigma, St. Louis, Mo., shown in FIG. 14B, was fabricated on an Al electrode covered with a sublayer consisting of 95% of the sodium salt of alginic acid (Sigma, St. Louis, Mo.) and 5 of Triton X-100 detergent. The LADH solution containing 5 mg/ml of protein and 1.5 mg/ml of sucrose was electrosprayed in dry air at +4.3 kV and 30-40 nA from a capillary placed about 15 mm over the substrate. The deposited film was cross-linked for 8 minutes with the vapor from 25% glutaraldehyde at 28° C. The samples were then tested for their ability to change isometric tension in response to 0.4 mM NADH solution.

[9] = tested on: goat antibody against human serum albumin; assay: microELISA of electrospray-deposited protein antigens on IMMOBILON-P filter; assay type: binding; conditions: primary antibody against human serum albumin 1:1000, AP-labeled secondary antibody 1:3000
Protocol: Different antigens (serum albumins from human and ox, ovalbumin and human hemoglobin) were electrospray deposited onto a wetted IMMOBILON-P membrane filter through a mask having multiple holes. After each deposition of a different protein antigen, the mask was shifted by 1.1 mm. After depositing all four protein antigens, the membrane filter was dried for 15 min. at 37° C. and blocked by soaking in a PBS solution (10 mM sodium phosphate buffer, pH 7.2, 0.9% NaCl) with 0.05% Tween-20, 1% chicken albumin (ovalbumin). […] The filter was then washed twice with PBS buffer for 10 seconds and reacted with a solution of anti-goat IgG antibodies labeled with alkaline phosphatase (Sigma, diluted 1:3000).

[10] = tested on: peroxidase; assay: Enzyme activity of electrospray-deposited peroxidase on nitrocellulose filter (DAB substrate); assay type: biochemical; conditions: deposited through polypropylene mask onto wetted nitrocellulose filter; DAB staining
Description: The electrospray conditions used in this example were similar to those used in Example 1.
After electrospray, the pattern of deposited enzyme was not visible on the membrane filter surface. However, the patterns of the enzymes did become visible after soaking the peroxidase-deposited membrane filter in a solution of a standard peroxidase substrate (3,3′-diaminobenzidine, abbreviated DAB, and obtained from Sigma, St. Louis, Mo.), resulting in the formation of an insoluble brown colored product of the peroxidase reaction.

[11] = target: Concanavalin A (Canavalia ensiformis, UniProt P02866); conditions: cross-linked Concanavalin A film, ligand 5-10 times binding constant
Protocol: Protein films were prepared by electrospray for use in a mechanochemical method of assay. A 2 mg/ml concanavalin A (Sigma, St. Louis, Mo.) solution, containing 0.5 mg/ml of glycerol was electrosprayed through a rectangular single hole onto an Al electrode covered with a polymeric conducting sublayer of about 2-5 microns thick. The sublayer was prepared by drying a thin layer of water solution of a mixture of three compounds (polyethylene glycol-8000, poly(anetholesulfonic acid)—Na-salt and Triton X-100), 3%. each. The protein solution was electrosprayed from a capillary tip placed 20 mm over the substrate, with positive voltage of 4.0 kV at the capillary and a current of 33 nA. Deposition was performed in dry air for 10 minutes. After electrospray deposition, the sample was cross-linked for 15 minutes in a vapor of 25% glutaraldehyde (Aldrich Chemical Company, Milwaukee, Wis.) at 25° C. Upon applying a droplet of water on the substrate surface, the sample was floated off the substrate within 5 seconds.

Effect in Dried Sample % (relative change in isometric tension) ([1]; conventional drying on glass): +4.0% | Effect in Electrospray Deposit Sample % (relative change in isometric tension) ([1]; electrospray deposited): −3.4%
Molecule: Nc1ccn([C@@H]2O[C@H](CO)[C@@H](OP(=O)(O)O)[C@H]2O)c(=O)n1 [3′-Cytidine monophosphate]

Molecule: O=[N+]([O-])[O-].[Ag+] [AgNO3]
inhibition of AP [2]: does not result in any inhibition

Effect in Dried Sample % (relative change in isometric tension in protein film induced by binding of specific ligand) [3]: +23%
Molecule: CCOC(=O)[C@H](CCCN=C(N)N)NC(=O)c1ccccc1 [BAEE]

Molecule: O=C(O)CCCC[C@@H]1SC[C@@H]2NC(=O)N[C@@H]21 [Biotin]
Effect in Dried Sample % (relative change in isometric tension) ([4]; conventional drying on glass): −51% | Effect in Electrospray Deposit Sample % (relative change in isometric tension) ([4]; electrospray deposited): −41% and −48%

Molecule: [Ca+2] [Ca^+2]
Effect in Dried Sample % (relative change in isometric tension) ([5]; cross-linked α-Lactalburnin film, conventional drying on glass, ligand 5-10 times binding constant): +240% | Effect in Electrospray Deposit Sample % (relative change in isometric tension) ([5]; cross-linked α-Lactalburnin film, electrospray deposited, ligand 5-10 times binding constant): +370% | difference in mechanochemical response to ligand between wet electrospray deposited and conventionally prepared films ([5]; α-lactalbumin films, wet electrospray deposition onto glass covered with conducting SnO2 layer): No notable difference

Effect in Dried Sample % (relative change in isometric tension) ([6]; conventional drying on glass): +13% | Effect in Electrospray Deposit Sample % (relative change in isometric tension) ([6]; electrospray deposited): +16%
Molecule: Nc1ncnc2c1ncn2[C@@H]1O[C@H](COP(=O)(O)OP(=O)([O-])OP(=O)([O-])O)[C@@H](O)[C@H]1O.[Mg+2] [Mg-ATP]

Effect in Dried Sample % (relative change in isometric tension) ([7]; conventional drying on glass): −7.7% and −8.7% | Effect in Electrospray Deposit Sample % (relative change in isometric tension) ([7]; electrospray deposited): −6.3% and −3.5%
Molecule: CC(=O)N[C@H]1C(O)O[C@H](CO)[C@@H](O)[C@@H]1O (stereo partly drawn) [N-acetyl-D-glucosamine]

ligand-induced increase in isometric tension ([8]; conventionally prepared LADH film): 6-7% | ligand-induced increase in isometric tension ([8]; electrospray deposited LADH film, glutaraldehyde cross-linked): 6-7%
Molecule: NC(=O)C1=CN([C@@H]2O[C@H](COP(=O)(O)OP(=O)(O)OC[C@H]3O[C@@H](n4cnc5c(N)ncnc54)[C@H](O)[C@@H]3O)[C@@H](O)[C@H]2O)C=CC1 [NADH]

Effect in Dried Sample % (relative change in isometric tension in protein film induced by binding of specific ligand) [3]: +69% | Effect in Electrospray Deposit Sample % (relative change in isometric tension in protein film induced by binding of specific ligand) ([3]; electrospray deposited): +72; +72%
Molecule: Nc1ccc2cc3ccc(N)cc3nc2c1 [Proflavin]

Molecule: bovine albumin: serum albumin from ox, antigen electrospray deposited onto filter
spot intensity in microELISA [9]: less intensively colored

Molecule: human hemoglobin: protein antigen electrospray deposited onto IMMOBILON-P filter
spot intensity in microELISA [9]: less intensively colored

Molecule: peroxidase: commercially available peroxidase (Sigma), electrospray deposited; horseradish peroxidase per b108
enzymatic activity after electrospray deposition [10]: retained

Molecule: α-D-mannopyranoside
Effect in Dried Sample % (relative change in isometric tension) ([11]; conventional drying on glass): +11% | Effect in Electrospray Deposit Sample % (relative change in isometric tension) ([11]; electrospray deposited): +4%

B1: ovalbumin: protein antigen electrospray deposited onto IMMOBILON-P filter (protein, UniProt P01012 2-386, looked up)
Ovalbumin: GSIGAASMEFCFDVFKELKVHHANENIFYCPIAIMSALAMVYLGAKDSTRTQINKVVRFDKLPGFGDSIEAQCGTSVNVHSSLRDILNQITKPNDVYSFSLASRLYAEERYPILPEYLQCVKELYRGGLEPINFQTAADQARELINSWVESQTNGIIRNVLQPSSVDSQTAMVLVNAIVFKGLWEKAFKDEDTQAMPFRVTEQESKPVQMMYQIGLFRVASMASEKMKILELPFASGTMSMLVLLPDEVSGLEQLESIINFEKLTEWTSSNVMEERKIKVYLPRMKMEEKYNLTSVLMAMGITDVFSSSANLSGISSAESLKISQAVHAAHAEINEAGREVVGSAEAGVDAASVSEEFRADHPFLFCIKHIATNAVLFFGRCVSP
spot intensity in microELISA [9]: not visible at all
